{"source": "paper PMC10115881", "about": "“Disrupting the α-synuclein-ESCRT interaction with a peptide inhibitor mitigates neurodegeneration in preclinical models of Parkinson’s disease” (Nature Communications, 2023)", "key": {"[1]": {"tested_on": "A53T a-syn expressing HEK293 cells", "experiment": "Cell viability with CHMP2B or VPS4 shRNA knockdown, A53T a-syn cells", "assay_type": "cell-based, human", "parameters": "Knockdown effect on cell viability: scale not given here", "from_the_text": "Fig. 1 Proteomic screens and in vitro validation of hits. A Schematic of the experimental design including proteomic screens, identification and validation of hits, target deconvolution, and evaluation in cell and animal models (created using Servier Medical Art at https://smart.servier.com/). For the cytotoxicity screen, we employed our peptide library to identify peptides that rescue cytotoxicity induced by a-syn overexpression and proteostatic stress (due to MG132 administration). To screen our library for peptides that inhibit a-syn oligomers, we used FACS with a split YFP-a-syn system (cells co-expressing V1S and SV2). B Validation of cell viability effect of peptides in A53T and WT a-syn expressing cells under proteostatic stress as well as controls. MG132 was used at a concentration of 10 μM. Experiments were done in triplicate. Data represent means ± s.d. (unpaired two-tailed t-tests; A53T PDpep1, P = 0.0051; A53T PDpep1.1, P = 0.0002; A53T PDpep1.2, P = 0.0035; A53T PDpep1.3, P < 0.0001; WT a-syn PDpep1.3, P = 0.0008; n = 3). C WT a-syn oligomers as measured by luciferase activity. […] Experiments were done in triplicate. Data represent means ± s.d. (unpaired two-tailed t-tests; PDpep1, P = 0.0008; PDpep1.1, PDpep1.2, PDpep1.3, P < 0.0001; n = 3). D Co-immunoprecipitation experiment with Flag-CHMP2B and GFP-peptides (n = 3). […] E Fluorescence polarization (FP) binding assay of a FITC-labeled PDpep1.3 peptide against CHMP2B. Error bars represent ± s.d. of the fit (n = 5). F Knockdown of CHMP2B or VPS4 in A53T a-syn expressing cells under proteostatic stress. Cell viabilities were measured with cells stably expressing different shRNAs and transfected with Scramble or PDpep1.3 peptide. Experiments were done in triplicate. Data represent means ± s.d. (unpaired two-tailed t-tests; PDpep1.3, P = 0.0005; n = 3). **P < 0.01; ***P < 0.001; ****P < 0.0001. Source data are provided as a Source Data file.\nCells were trypsinized from subconfluent cultures as described earlier, suspended in culture media, and then seeded into triplicate wells of a 96-well plate (100 µl/well) at a density of 1.5 × 10^4 cells per well with standard culture conditions of 5% CO2 at 37 °C. Cells were infected with lentivirus expressing peptide at a MOI of 5 for 72 h or transfected with plasmid for 72 h. Cell Titer-Glo reagent was added to each well (30 µL), according to the manufacturer’s protocol and […]."}, "[2]": {"tested_on": "WT a-syn-mediated cytotoxicity in HEK293 cells", "experiment": "Pooled lentiviral 7-mer peptide cytotoxicity screen, WT a-syn + MG132;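 as to Slope Norm Reads: reads normalized to total peptide reads per sample with scalar factor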", "assay_type": "cell-based, human", "from_the_text": "We used a lentiviral library of 50,549 7-mer peptides enriched in PPI motifs[13] on a green fluorescent protein (GFP) scaffold (Fig. 1A). We infected cells in a pooled format and the amino acid sequence of each peptide served as its own barcode. By using a low multiplicity of infection followed by puromycin selection, each infected cell expressed one unique GFP-peptide. We screened for peptides that reduced a-syn-mediated cytotoxicity or a-syn oligomers in parallel (Fig. 1A). To cause cytotoxicity relevant to PD, we induced proteostatic stress in HEK293 cells by inhibiting the proteasome with MG132 and overexpressing human WT a-syn associated with idiopathic PD in one screen or the more toxic mutant A53T a-syn associated with familial PD in a second screen. This combination of a-syn overexpression and pharmacological proteasome inhibition led to death of most cells, with only those that expressed a protective peptide surviving. By extracting genomic DNA from the surviving cells and amplifying the peptide coding sequences, we identified the protective peptides (Fig. 1A). To detect a-syn oligomers, we used a protein fragment complementation assay (PCA) of a-syn oligomerization in HEK293 cells. In this assay, human A53T a-syn was fused to either the C- or N-terminal half of yellow fluorescent protein (YFP). No fluorescence is detectable while a-syn exists in monomers but, when a-syn oligomerizes, the two halves of YFP come in close enough proximity to form a functional, spontaneously fluorescent protein. […] Our screens yielded 10 hits (Table S1). The hit with the most reads (i.e., the most abundant) was the same peptide in all screens: IPIQLKA (named PDpep1) (Table S1). We validated the cytoprotective effects of PDpep1 in HEK293 cells overexpressing WT or A53T a-syn (Figs. 1B, S1A), as well as its ability to reduce WT or A53T a-syn oligomers in a luciferase-based PCA[18]–[20] compared to a scrambled control peptide (Figs. 1C, S1B).\nHEK293T cells (ATCC, CRL-3216) were maintained in DMEM supplemented with 10% FBS and 1% pen/strep/glutamine, and the appropriate selection antibiotics when required. Lentiviruses were made in a 15 cm dish format by transfecting packaging cells (HEK293T) with a three-plasmid system (expression vector, psPAX2 and pMD2.G) and using Polyjet DNA transfection reagent (FroggaBio, SL100688.1). Viral transduction of HEK293T cells were performed with a multiplicity of infection (MOI) of 0.3. Infected cells were selected in puromycin-containing medium to eliminate uninfected cells and three aliquots of cells were collected for sampling of the initial (T0) cell population. Cells were treated with MG132 at concentrations of 0, 10, 25, or 50 µM. For the cell viability screen, surviving cells were collected and gDNA was extracted for identification of peptide inhibitors of cell toxicity. For the inhibition of a-syn aggregation screen, a protein fragment complementation assay (PCA) was used by transfecting cells with split YFP-a-syn constructs following stable expression of the peptides. Cells were sorted based on their YFP fluorescence intensities with a FACSVantage SE cell sorter (BD Bioscience) and gDNA was extracted for identification of peptides.\nGenomic DNA (gDNA) from peptide expressing cells at different time-points was extracted using QIAamp DNA Blood Mini Kit. PCR amplifications of peptides from gDNA in parallel with the lentiviral plasmid library (naïve library) were performed using indexed Illumina PCR primers to incorporate both the Illumina adapter sequences and indexing sequences. Each 50 μl reaction contained 3.2 μg of template, 2× PCR buffer, 2× enhancer solution, 300 μM each dNTP, 900 nM each of Adapter A (5′-[…]-[…]-3′) and Adapter B (5′-[…]-[…]-3′), 1 mM MgSO4, 3.75 units of Platinum Pfx polymerase, and water to 50 μl. […]"}}}
{"substance": "DEEIERQLKALG [PDpep1.3]", "values": [{"measurement": "Knockdown effect on cell viability", "setting": "[1]; CHMP2B shRNA, replicate 1", "value": 1.187}, {"measurement": "Knockdown effect on cell viability", "setting": "[1]; CHMP2B shRNA, replicate 2", "value": 1.181}, {"measurement": "Knockdown effect on cell viability", "setting": "[1]; CHMP2B shRNA, replicate 3", "value": 1.121}, {"measurement": "Knockdown effect on cell viability", "setting": "[1]; No shRNA, replicate 1", "value": 1.473}, {"measurement": "Knockdown effect on cell viability", "setting": "[1]; No shRNA, replicate 2", "value": 1.4504}, {"measurement": "Knockdown effect on cell viability", "setting": "[1]; No shRNA, replicate 3", "value": 1.525}, {"measurement": "Knockdown effect on cell viability", "setting": "[1]; VPS4A shRNA, replicate 1", "value": 1.3172}, {"measurement": "Knockdown effect on cell viability", "setting": "[1]; VPS4A shRNA, replicate 2", "value": 1.331}, {"measurement": "Knockdown effect on cell viability", "setting": "[1]; VPS4A shRNA, replicate 3", "value": 1.421}, {"measurement": "Knockdown effect on cell viability", "setting": "[1]; VPS4A/B shRNA, replicate 1", "value": 1.464}, {"measurement": "Knockdown effect on cell viability", "setting": "[1]; VPS4A/B shRNA, replicate 2", "value": 1.542}, {"measurement": "Knockdown effect on cell viability", "setting": "[1]; VPS4A/B shRNA, replicate 3", "value": 1.564}, {"measurement": "Knockdown effect on cell viability", "setting": "[1]; VPS4B shRNA, replicate 1", "value": 1.302}, {"measurement": "Knockdown effect on cell viability", "setting": "[1]; VPS4B shRNA, replicate 2", "value": 1.395}, {"measurement": "Knockdown effect on cell viability", "setting": "[1]; VPS4B shRNA, replicate 3", "value": 1.343}, {"measurement": "Cytoprotective effect under knockdown", "setting": "[1]; shRNA CHMP2B or VPS4A and/or VPS4B", "value": "prevented by CHMP2B knockdown, but not by knockdown of VPS4A and/or VPS4B"}]}
{"substance": "IPIQLKA [PDpep1, initial screen hit peptide IPIQLKA]", "values": [{"measurement": "Reads 10M MG132", "setting": "[2]", "value": 1}, {"measurement": "Reads 25M MG132", "setting": "[2]", "value": 1629}, {"measurement": "Reads 50M MG132", "setting": "[2]", "value": 3375}, {"measurement": "Slope Norm Reads", "setting": "[2]", "value": 3.45}, {"measurement": "Reads 0M MG132", "setting": "[2]; Illumina reads, average Phred >30", "value": 90}]}
